Data as given in patent US20050165064A1, “Novel thiol derivative, process for producing the same and use thereof” (priority 2003, published 2005).
Where a name gives a salt, the structure may show the parent alone. Values belong to the molecule of their own block, whether it stands above or below them.

Target: Recombinant Human MMP-13 (Homo sapiens, UniProt P45452)
Test: MMP-13 inhibitory activity, fluorescent synthetic substrate method
Assay type: biochemical
Details: 8 nM APMA-activated enzyme, 10 μM substrate, 37° C., 1 hour
Method: The MMP-13 inhibitory activity was measured by a method using a fluorescent synthetic substrate. To a buffer solution for measurement (100 mM Tris-HCl, pH 7.4, 100 mM NaCl, 10 mM CaCl2) containing Recombinant Human MMP-13 (manufactured by Takeda Pharmaceuticals, Inc.) activated by APMA (1 mM) in a concentration of 8 nM, the compound dissolved in DMSO was added in a predetermined concentration. Subsequently, a fluorescent synthetic substrate (7-methoxycoumarin-4-yl)acetyl-Pro-Leu-Gly-Leu-(3-[2,4-dinitrophenyl]-L-2,3-diaminopropionyl)-Ala-Arg-NH2 was added thereto in a concentration of 10 μM to initiate the reaction. After incubation at 37° C. for 1 hour, a 500 mM acetate buffer (pH 3.0) was added to stop the reaction. The increase in the fluorescence intensity due to substrate decomposition was measured employing a CORONA MTP-32 plate reader under the condition of Ex/Em=340/400. The rate of inhibition of the enzymatic inhibitory activity was determined from the following equation: Rate of Inhibition (%)=100−(X−C)/(T−C)×100
T: Fluorescence intensity of the control with addition of enzyme and without addition of the compound
C: Fluorescence intensity of the control without addition of enzyme and without addition of the compound
X: Fluorescence intensity with addition of enzyme and with addition of the compound

SMILES: CS(=O)(=O)Nc1ccc(Oc2ccc(CN3C[C@H](S)CC3=O)cn2)cc1 [Example 15]
rate of inhibition for MMP-13 activity (compound 1.5 nM): 67%

inhibition at 0.0015 µM (compound 1.5 nM, read-out: rate of inhibition for MMP-13 activity): 50%
SMILES: CCc1ccc(Oc2ccc(CN3C[C@H](S)CC3=O)cn2)cc1 [Example 12, (4R)-1-{[6-(4-ethylphenoxy)pyridin-3-yl]methyl}-4-mercaptopyrrolidin-2-one]

inhibition at 0.003 µM (compound 3 nM, read-out: rate of inhibition for MMP-13 activity): 63%
SMILES: O=C1C[C@@H](S)CN1Cc1ccc(Oc2ccc(F)cc2)nc1 [Example 2, (4R)-1-{[6-(4-fluorophenoxy)pyridin-3-yl]methyl}-4-mercaptopyrrolidin-2-one hydrochloride]
